Measured values: patent publication US11795460B2, “Compositions and methods for TTR gene editing and treating ATTR amyloidosis” (Intellia Therapeutics, Inc., priority 2017, dated 2023)

How the values were obtained:
[1] = tested on: TTR; assay: TTR editing in primary human hepatocytes transfected with Spy Cas9 mRNA and dgRNAs (Table 9); type: cell-based; details: dgRNA co-transfected with Spy Cas9 mRNA (SEQ ID NO:2)
Procedure, shortened: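 PHH sequentially lipofected with Spy Cas9 mRNA (100 ng), then crRNA plus tracrRNA (25 nM each) dual-guide lipoplex. Cells harvested 24, 48 or 72 h post-transfection; TTR target amplicons sequenced on Illumina MiSeq, editing given as percent reads with indels or substitutions over total reads.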

[2] = tested on: TTR; assay: TTR editing in HEK293_Cas9 cells transfected with dgRNAs (Table 4); type: cell-based, human; details: HEK293_Cas9 cells (constitutively express Spy Cas9) transfected with dgRNAs
Protocol: HEK293 Cas9 cell line. The human embryonic kidney adenocarcinoma cell line HEK293 constitutively expressing Spy Cas9 (“HEK293_Cas9”) was cultured in DMEM media supplemented with 10% fetal bovine serum and 500 μg/ml G418. Cells were plated at a density of 10,000 cells/well in a 96-well plate 24 hours prior to transfection. Cells were transfected with Lipofectamine RNAiMAX (ThermoFisher, Cat. 13778150) per the manufacturer's protocol. Cells were transfected with a lipoplex containing individual crRNA (25 nM), trRNA (25 nM), Lipofectamine RNAiMAX (0.3 μL/well) and OptiMem.
(§1) Transfected cells were harvested post-transfection at 24, 48, or 72 hours. The genomic DNA was extracted from each well of a 96-well plate using 50 μL/well BuccalAmp DNA Extraction solution (Epicentre, Cat. QE09050) per manufacturer's protocol. All DNA samples were subjected to PCR and subsequent NGS analyses, as described herein.
(§2) To quantitatively determine the efficiency of editing at the target location in the genome, sequencing was utilized to identify the presence of insertions and deletions introduced by gene editing.
(§3) Primers were designed around the target site within the gene of interest (e.g. TTR), and the genomic area of interest was amplified.
(§4) Additional PCR was performed per the manufacturer's protocols (Illumina) to add chemistry for sequencing. The amplicons were sequenced on an Illumina MiSeq instrument. The reads were aligned to a reference genome (e.g., the human reference genome (hg38), the cynomologus reference genome (mf5), the rat reference genome (rn6), or the mouse reference genome (mm10)) after eliminating those having low quality scores. The resulting files containing the reads were mapped to the reference genome (BAM files), where reads that overlapped the target region of interest were selected and the number of wild type reads versus the number of reads which contain an insertion, substitution, or deletion was calculated.
(§5) The editing percentage (e.g., the “editing efficiency” or “percent editing” or “indel frequency”) is defined as the total number of sequence reads with insertions/deletions (“indels”) or substitutions over the total number of sequence reads, including wild type.
(§6) Guides in dgRNA format targeting human TTR and the cynomologus matched sequences were delivered to HEK293 Cas9, HUH7 and HepG2 cell lines, as well as primary human hepatocytes and primary cynomolgus monkey hepatocytes as described in Example 1. Percent editing was determined for crRNAs comprising each guide sequence across each cell type and the guide sequences were then rank ordered based on highest % edit. The screening data for the guide sequences in Table 1 in all five cell lines are listed below (Table 4 through 11).

[3] = tested on: TTR; assay: TTR editing in HepG2 cells transfected with Spy Cas9 mRNA and dgRNAs (Table 6); type: cell-based, human; details: HepG2 cells co-transfected with Spy Cas9 mRNA (SEQ ID NO:2) and dgRNAs
Procedure, shortened: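 HepG2 cells were transfected sequentially by lipofection with Spy Cas9 mRNA (100 ng), then crRNA plus tracer RNA (25 nM each), and harvested at 24, 48 or 72 h. Editing was measured by amplicon NGS at the TTR target site as the fraction of reads with indels or substitutions.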

[4] = tested on: TTR; assay: TTR editing in HUH7 cells transfected with Spy Cas9 mRNA and dgRNAs (Table 5); type: cell-based, human; details: HUH7 cells co-transfected with Spy Cas9 mRNA (SEQ ID NO:2) and dgRNAs
Protocol: HUH7 cell line. The human hepatocellular carcinoma cell line HUH7 (Japanese Collection of Research Bioresources Cell Bank, Cat. JCRB0403) was cultured in DMEM media supplemented with 10% fetal bovine serum. Cells were plated on at a density of 15,000 cells/well in a 96-well plate 20 hours prior to transfection. Cells were transfected with Lipofectamine MessengerMAX (ThermoFisher, Cat. LMRNA003) per the manufacturer's protocol. Cells were sequentially transfected with a lipoplex containing Spy Cas9 mRNA (100 ng), MessengerMAX (0.3 μL/well) and OptiMem followed by a separate lipoplex containing individual crRNA (25 nM), tracer RNA (25 nM), MessengerMAX (0.3 μL/well) and OptiMem.
as §1, §2, §3, §4, §5, §6

AAAGGCUGCUGAUGACACCU (tested as dual guide RNA, chemistry not given here) [CR003353]
Avg % Deletion [1]: 4.43% | Avg % Edit [1]: 53.73% | Avg % Insert [1]: 49.50% | Avg % Deletion [2]: 21.32% | Avg % Edit [2]: 25.03% | Avg % Insert [2]: 3.71% | Avg % Deletion [3]: 3.68% | Avg % Edit [3]: 60.40% | Avg % Insert [3]: 56.71% | Avg % Deletion [4]: 62.87% | Avg % Edit [4]: 69.18% | Avg % Insert [4]: 7.73%

AAAGUUCUAGAUGCUGUCCG (tested as dual guide RNA, chemistry not given here) [CR003346]
Avg % Deletion [1]: 14.33% | Avg % Edit [1]: 19.97% | Avg % Insert [1]: 5.63% | Avg % Deletion [2]: 15.30% | Avg % Edit [2]: 48.33% | Avg % Insert [2]: 33.03% | Avg % Deletion [3]: 0.05% | Avg % Edit [3]: 0.13% | Avg % Insert [3]: 0.07% | Avg % Deletion [4]: 6.97% | Avg % Edit [4]: 18.07% | Avg % Insert [4]: 13.17%

AAAUAGACACCAAAUCUUAC (tested as dual guide RNA, chemistry not given here) [CR003366]
Avg % Deletion [1]: 4.07% | Avg % Edit [1]: 24.53% | Avg % Insert [1]: 20.47% | Avg % Deletion [2]: 37.26% | Avg % Edit [2]: 47.36% | Avg % Insert [2]: 10.10% | Avg % Deletion [3]: 8.49% | Avg % Edit [3]: 54.69% | Avg % Insert [3]: 46.20% | Avg % Deletion [4]: 50.32% | Avg % Edit [4]: 69.98% | Avg % Insert [4]: 20.77%

AAGUGCCUUCCAGUAAGAUU (tested as dual guide RNA, chemistry not given here) [CR003368]
Avg % Deletion [1]: 0.60% | Avg % Edit [1]: 11.10% | Avg % Insert [1]: 10.53% | Avg % Deletion [2]: 36.61% | Avg % Edit [2]: 40.35% | Avg % Insert [2]: 3.73% | Avg % Deletion [3]: 3.22% | Avg % Edit [3]: 51.55% | Avg % Insert [3]: 48.34% | Avg % Deletion [4]: 29.69% | Avg % Edit [4]: 31.57% | Avg % Insert [4]: 3.08%

AAUAGGAGUAGGGGCUCAGC (tested as dual guide RNA, chemistry not given here) [CR003384]
Avg % Deletion [1]: 0.20% | Avg % Edit [1]: 1.70% | Avg % Insert [1]: 1.50% | Avg % Deletion [2]: 16.00% | Avg % Edit [2]: 17.45% | Avg % Insert [2]: 1.45% | Avg % Deletion [3]: 0.25% | Avg % Edit [3]: 3.37% | Avg % Insert [3]: 3.12% | Avg % Deletion [4]: 16.29% | Avg % Edit [4]: 17.03% | Avg % Insert [4]: 0.84%

ACACAAAUACCAGUCCAGCA (tested as dual guide RNA, chemistry not given here) [CR003339]
Avg % Deletion [1]: 34.23% | Avg % Edit [1]: 36.43% | Avg % Insert [1]: 2.27% | Avg % Deletion [2]: 6.98% | Avg % Edit [2]: 56.37% | Avg % Insert [2]: 49.39% | Avg % Deletion [3]: 55.84% | Avg % Edit [3]: 68.21% | Avg % Insert [3]: 12.37% | Avg % Deletion [4]: 20.13% | Avg % Edit [4]: 79.97% | Avg % Insert [4]: 60.55%

ACCUCUGCAUGCUCAUGGAA (tested as dual guide RNA, chemistry not given here) [CR003371]
Avg % Deletion [1]: 0.73% | Avg % Edit [1]: 3.40% | Avg % Insert [1]: 2.67% | Avg % Deletion [2]: 21.76% | Avg % Edit [2]: 25.60% | Avg % Insert [2]: 3.84% | Avg % Deletion [3]: 1.84% | Avg % Edit [3]: 15.91% | Avg % Insert [3]: 14.07% | Avg % Deletion [4]: 35.65% | Avg % Edit [4]: 40.47% | Avg % Insert [4]: 6.07%

ACGUGUCUUCUCUACACCCA (tested as dual guide RNA, chemistry not given here) [CR005302]
Avg % Deletion [1]: 1.13% | Avg % Edit [1]: 34.80% | Avg % Insert [1]: 33.67% | Avg % Deletion [3]: 2.29% | Avg % Edit [3]: 33.21% | Avg % Insert [3]: 30.93%

ACUGAGGAGGAAUUUGUAGA (tested as dual guide RNA, chemistry not given here) [CR003363]
Avg % Deletion [1]: 4.93% | Avg % Edit [1]: 16.70% | Avg % Insert [1]: 11.80% | Avg % Deletion [2]: 16.26% | Avg % Edit [2]: 31.03% | Avg % Insert [2]: 14.77% | Avg % Deletion [3]: 14.07% | Avg % Edit [3]: 42.65% | Avg % Insert [3]: 28.58% | Avg % Deletion [4]: 23.78% | Avg % Edit [4]: 41.01% | Avg % Insert [4]: 17.83%

AGACACCAAAUCUUACUGGA (tested as dual guide RNA, chemistry not given here) [CR003367]
Avg % Deletion [1]: 23.37% | Avg % Edit [1]: 37.33% | Avg % Insert [1]: 14.03% | Avg % Deletion [2]: 18.67% | Avg % Edit [2]: 47.11% | Avg % Insert [2]: 28.44% | Avg % Deletion [3]: 21.27% | Avg % Edit [3]: 45.55% | Avg % Insert [3]: 24.28% | Avg % Deletion [4]: 33.48% | Avg % Edit [4]: 66.29% | Avg % Insert [4]: 33.62%

AGCCUUUCUGAACACAUGCA (tested as dual guide RNA, chemistry not given here) [CR003351]
Avg % Deletion [1]: 16.37% | Avg % Edit [1]: 26.50% | Avg % Insert [1]: 10.20% | Avg % Deletion [2]: 21.24% | Avg % Edit [2]: 49.67% | Avg % Insert [2]: 28.42% | Avg % Deletion [3]: 25.57% | Avg % Edit [3]: 57.54% | Avg % Insert [3]: 31.98% | Avg % Deletion [4]: 27.49% | Avg % Edit [4]: 63.51% | Avg % Insert [4]: 36.87%

AGGCAGUCCUGCCAUCAAUG (tested as dual guide RNA, chemistry not given here) [CR003348]
Avg % Deletion [1]: 15.80% | Avg % Edit [1]: 18.00% | Avg % Insert [1]: 2.30% | Avg % Deletion [2]: 13.21% | Avg % Edit [2]: 35.53% | Avg % Insert [2]: 22.32% | Avg % Deletion [3]: 21.40% | Avg % Edit [3]: 38.44% | Avg % Insert [3]: 17.04% | Avg % Deletion [4]: 22.71% | Avg % Edit [4]: 57.14% | Avg % Insert [4]: 36.08%

CCCCUACUCCUAUUCCACCA (tested as dual guide RNA, chemistry not given here) [CR003385]
Avg % Deletion [1]: 3.60% | Avg % Edit [1]: 36.77% | Avg % Insert [1]: 33.23% | Avg % Deletion [2]: 18.82% | Avg % Edit [2]: 26.19% | Avg % Insert [2]: 7.36% | Avg % Deletion [3]: 7.62% | Avg % Edit [3]: 53.94% | Avg % Insert [3]: 46.32%

GUCACAGAAACACUCACCGU (tested as dual guide RNA, chemistry not given here) [CR005301]
Avg % Deletion [1]: 1.40% | Avg % Edit [1]: 6.77% | Avg % Insert [1]: 5.47% | Avg % Deletion [3]: 3.65% | Avg % Edit [3]: 37.04% | Avg % Insert [3]: 33.39%

UGAAUCCAAGUGUCCUCUGA (tested as dual guide RNA, chemistry not given here) [CR005303]
Avg % Deletion [1]: 0.50% | Avg % Edit [1]: 35.50% | Avg % Insert [1]: 35.00% | Avg % Deletion [3]: 1.08% | Avg % Edit [3]: 21.63% | Avg % Insert [3]: 20.55%
